# Measured values published in patent US6444615B1, “Herbicidal imidazolidinetrione and thioxo-imidazolidinediones” (Dow AgroSciences LLC, priority 2000, dated 2002).
# Legend:
# Assay type in all cases: in vivo
# Conditions in all cases: 1200 g/ha, scale of 0-100, 0 no activity, 100 total control, about two or four weeks after application
# [1] = test system: Nightshade, (black) (Solanum nigrum); assay: Herbicidal post-emergence test, Nightshade (black)
# Method: (§1) Listed below, a typical planting design for the test, consisting of four monocot weeds, four dicot weeds and one sedge weed. [table] For each compound, evaluation tests were carried out according to the following procedures: For preemergence tests, immediately after planting, the test compound was sprayed directly onto the soil surface. The flats or pots were placed in the greenhouse and then watered. For postemergence tests, seeds were allowed to germinate and grow for 10 to 21 days before application. The test plants were selected for uniformity, size and stage of development. The test plants were then treated with the test compound, returned to the greenhouse and watered. Untreated plants were used as a comparison. The compound to be evaluated was dissolved in an appropriate solvent, usually acetone, or a formulation of the evaluated compounds as described above, was added to the water, and sprayed over the flats or pots using a carrier volume equivalent to 187 or 468 liters per hectare to give a rate of application in grams per hectare (g/ha). About two or four weeks after application of the test compounds, the state of the plant was observed. Each species was evaluated on a scale of 0-100 in which 0 equals no activity and 100 equals total control.
# [2] = test system: Foxtail, (green) (Setaria viridis); assay: Herbicidal pre-emergence test, Foxtail (green)
# Method: as §1
# [3] = test system: Perennial Ryegrass (Lolium perenne); assay: Herbicidal post-emergence test, Perennial Ryegrass
# Method: as §1
# [4] = test system: Velvetleaf (Abutilon theophrasti); assay: Herbicidal post-emergence test, Velvetleaf
# Method: as §1
# [5] = test system: Crabgrass (large) (Digitaria sanguinalis); assay: Herbicidal pre-emergence test, Crabgrass (large)
# Method: as §1
# [6] = test system: Crabgrass (large) (Digitaria sanguinalis); assay: Herbicidal post-emergence test, Crabgrass (large)
# Method: as §1
# [7] = test system: Smartweed, (pale) (Polygonum lapathifolium); assay: Herbicidal post-emergence test, Smartweed (pale)
# Method: as §1
# [8] = test system: Barnyardgrass (Echinochloa crusgalli); assay: Herbicidal post-emergence test, Barnyardgrass
# Method: as §1
# [9] = test system: Nutsedge, (yellow) (Cyperus esculentus); assay: Herbicidal pre-emergence test, Nutsedge (yellow)
# Method: as §1
# [10] = test system: Nightshade, (black) (Solanum nigrum); assay: Herbicidal pre-emergence test, Nightshade (black)
# Method: as §1
# [11] = test system: Velvetleaf (Abutilon theophrasti); assay: Herbicidal pre-emergence test, Velvetleaf
# Method: as §1
# [12] = test system: Foxtail, (green) (Setaria viridis); assay: Herbicidal post-emergence test, Foxtail (green)
# Method: as §1
# [13] = test system: Perennial Ryegrass (Lolium perenne); assay: Herbicidal pre-emergence test, Perennial Ryegrass
# Method: as §1
# [14] = test system: Hairy Beggarticks (Bidens pilosa); assay: Herbicidal post-emergence test, Hairy Beggarticks
# Method: as §1
# [15] = test system: Nutsedge, (yellow) (Cyperus esculentus); assay: Herbicidal post-emergence test, Nutsedge (yellow)
# Method: as §1
# [16] = test system: Hairy Beggarticks (Bidens pilosa); assay: Herbicidal pre-emergence test, Hairy Beggarticks
# Method: as §1
# [17] = test system: Barnyardgrass (Echinochloa crusgalli); assay: Herbicidal pre-emergence test, Barnyardgrass
# Method: as §1
# [18] = test system: Smartweed, (pale) (Polygonum lapathifolium); assay: Herbicidal pre-emergence test, Smartweed (pale)
# Method: as §1
Structure (SMILES),Herbicidal Activity NS (post-emergence) [1],Herbicidal Activity FOX (pre-emergence) [2],Herbicidal Activity RYE (post-emergence) [3],Herbicidal Activity VEL (post-emergence) [4],Herbicidal Activity CRB (pre-emergence) [5],Herbicidal Activity CRB (post-emergence) [6],Herbicidal Activity SMT (post-emergence) [7],Herbicidal Activity BYG (post-emergence) [8],Herbicidal Activity NUT (pre-emergence) [9],Herbicidal Activity NS (pre-emergence) [10],Herbicidal Activity VEL (pre-emergence) [11],Herbicidal Activity FOX (post-emergence) [12],Herbicidal Activity RYE (pre-emergence) [13],Herbicidal Activity BID (post-emergence) [14],Herbicidal Activity NUT (post-emergence) [15],Herbicidal Activity BID (pre-emergence) [16],Herbicidal Activity BYG (pre-emergence) [17],Herbicidal Activity SMT (pre-emergence) [18]
CN1C(=O)C(=O)N(c2cc(OC3CCCC3)c(Cl)cc2F)C1=O [Compound 3],80,0,0/0,100,0/0,0/0,85,30,0/0,0,0,60,0/0,80,0/0,0,0,0
CCN1C(=O)C(=O)N(c2cc(OC3CCCC3)c(Cl)cc2F)C1=O [Compound 4],85,0,0/0,100,0/0,0/0,90,60,0/0,0,0,60,0/0,85,0/0,0,0,0
O=C1C(=O)N(c2cc(OC3CCCC3)c(Cl)cc2F)C(=O)N1CCCl [Compound 6],80,30,0/0,0/0,30,0,0,40/40,0/0,30,0/0,0,0/0,0,0/0,30,40/40,30
CCCN1C(=O)C(=O)N(c2cc(OC3CCCC3)c(Cl)cc2F)C1=O [Compound 8],100/100,0,0/0,100/100,100,40,100,60,0/0,100/100,100/100,95,0/0,95,0/0,100,0,20
CCCCN1C(=O)C(=O)N(c2cc(OC3CCCC3)c(Cl)cc2F)C1=O [Compound 10],100,0,30,100,0,20,30,40,0,0,0,80,0,60,30,0,0,0
C#CCOc1cc(N2C(=O)C(=O)N(C)C2=O)c(F)cc1Cl [Compound 12],100,0,0/0,100,0,30,100,40,0/0,50,20,40,0/0,95,0/0,40,0,0
C#CCOc1cc(N2C(=O)C(=O)N(CCC)C2=O)c(F)cc1Cl [Compound 13],100/100,100,30,100/100,100,30,95,80,0,100/100,100/100,60,60,85,30,100,95,100
